3 molecules from publication PMC11342128, “Gold(I) and gold(III) carbene complexes from the marine betaine norzooanemonin: inhibition of thioredoxin reductase, antiproliferative and antimicrobial activity” (RSC Medicinal Chemistry, 2024) can be followed below.

The target of one experiment is TrxR from E. coli (Escherichia coli, UniProt P0A9P4). The experiment in a line: Inhibition of isolated bacterial TrxR, DTNB-based assay. To be noted: compounds at 0.5 µM; n = 2; Table S13. Type of experiment: biochemical. The arrangement: purchased Sigma-Aldrich. On the procedure:
The inhibition of isolated TrxR from E. coli was determined for the selected monocarbene gold(I/III) complexes 2a–c and 4b–c using a DTNB-based assay (Table 3). […] The inhibition of bacterial TrxR for compound 2a was investigated in our previous report (Table 3).
S2.3. Inhibition of bacterial TrxR from E. coli
The TrxR (E. coli) inhibition assay was performed according to previously published procedures.[8] The assay is partly based on the procedure developed by Lu et al[9] and makes use of the reduction of DTNB (5,5′-dithiobis-(2-nitrobenzoic acid)). Solutions of E. coli TrxR (10.1 U/mL) and E. coli thioredoxin (Trx) (312 μg/mL) (both purchased from Sigma-Aldrich) were prepared in distilled water. Stock solutions of the test compounds (2 mM) were prepared in DMSO and serially diluted with TE buffer (Tris-HCl 50 mM, EDTA 1 mM, pH 7.5). 20 μL of these solutions or TE buffer without the test compounds (positive control) were mixed with the TrxR solution (10 μL), the Trx solution (10 μL) and 100 µl of NADPH (200 μM) in TE buffer in a well on a 96-well plate. As a blank control, 200 μM NADPH in TE buffer (100 μL) mixed with a DMSO / buffer mixture (40 μL) was used (final concentrations of DMSO: 0.5% v/v). The plate was incubated for 75 min at 25°C with moderate shaking. After incubation, 100 μL of a reaction mixture (TE buffer containing 200 μM NADPH and 5 mM DTNB) was added to each well to initiate the reaction. After thorough mixing, the formation of 5-TNB was monitored by a microplate reader at 405 nm in 35 s intervals (10 measurements). The values were corrected by subtraction of the blank solution absorption values. The increase in concentration of 5-TNB followed a linear trend (r2≥ 0.990) and the enzymatic activities were calculated as the gradients (increase in absorbance per second) thereof. […]
for each test compound, where the highest test compound concentration was used and the enzyme solution was replaced by TE buffer. The inhibition is presented as the mean IC50 values and standard deviations obtained in three independent experiments.
Table S13. Activity of TrxR from E. coli in presence of compounds at 0.5 µM (n = 2, n.d.= not

The subject of experiment [1] is MCF-7 breast adenocarcinoma cells. The experiment in a line: Antiproliferative activity, crystal violet assay. Type of experiment: cell-based. Conditions: 96 h exposure, SD in parentheses, n = 3. How it is done: (§1) The antiproliferative potential of the gold–NHC complexes was determined in A549 lung carcinoma cells, MDA-MB-231 breast cancer cells, MCF-7 breast adenocarcinoma cells, and HT-29 colon carcinoma cells (Table 1). Vero E6 African green monkey kidney cells served as a reference cell line to check for possible tumour selectivity. Auranofin (AF) was used as an established reference drug.[15,17] […]
(§2) S2.2. Cytotoxicity and Anticancer Studies
(§3) Cell culture and cytotoxicity
(§4) Cell lines were sourced from DSMZ (German Collection of Microorganisms and Cell Cultures GmbH) and maintained through standard procedures in Dulbecco's Modified Eagle Medium (DMEM) supplemented with 10% fetal calf serum and 50 mg/L gentamycin. Antiproliferative effects were assessed using a well-established assay protocol. In brief, 100 μL volumes of A549 cells (13,243 cells per mL), HT-29 cells (14,657 cells per mL), MDA-MB-231 cells (6,613 cells per mL), or MCF-7 cells (6,917 cells per mL) were transferred into the wells of 96-well plates and incubated at 37°C/5% CO2 for 72 […]
(§5) Freshly prepared stock solutions of the compounds in DMSO were diluted with the respective cell culture medium to achieve graded concentrations (final concentration of DMSO: 0.1% v/v). After 72 hours (A549, HT-29) or 96 hours (MCF-7, MDA-MB-231) of exposure, the cell biomass was assessed through crystal violet staining, and the IC50 value was determined as the concentration causing 50% inhibition of cell proliferation compared to an untreated control. Results were calculated as the mean values of three independent experiments.

Experiment [2] deals with MDA-MB-231 breast cancer cells. Kind of experiment: Antiproliferative activity, crystal violet assay. Conditions: 96 h exposure, SD in parentheses, n = 3. Type of experiment: cell-based. On the procedure: as §1, §2, §3, §4, §5
Experiment [3] has as its system HT-29 colon carcinoma cells. The experiment in a line: Antiproliferative activity, crystal violet assay. Type of experiment: cell-based. To be noted: 72 h exposure, SD in parentheses, n = 3. On the procedure: as §1, §2, §3, §4, §5
In experiment [4] the test system is A549 lung carcinoma cells. The experiment in a line: Antiproliferative activity, crystal violet assay. Type of experiment: cell-based. Conditions: 72 h exposure, SD in parentheses, n = 3. On the procedure:
as §1, §2, §3, §4, §5

For experiment [5], the system named is methicillin-resistant Staphylococcus aureus DSM 11822. The experiment in a line: Antibacterial activity (MIC, curve fitting). Conditions: Table S12; ± standard error of the mean. Type of experiment: cell-based.
The subject of experiment [6] is Klebsiella pneumoniae DSM111678. The experiment in a line: Antibacterial activity (MIC, curve fitting). Type of experiment: cell-based. Conditions: Table S12; ± standard error of the mean.

Sequence of TrxR from E. coli (P0A9P4 2-321): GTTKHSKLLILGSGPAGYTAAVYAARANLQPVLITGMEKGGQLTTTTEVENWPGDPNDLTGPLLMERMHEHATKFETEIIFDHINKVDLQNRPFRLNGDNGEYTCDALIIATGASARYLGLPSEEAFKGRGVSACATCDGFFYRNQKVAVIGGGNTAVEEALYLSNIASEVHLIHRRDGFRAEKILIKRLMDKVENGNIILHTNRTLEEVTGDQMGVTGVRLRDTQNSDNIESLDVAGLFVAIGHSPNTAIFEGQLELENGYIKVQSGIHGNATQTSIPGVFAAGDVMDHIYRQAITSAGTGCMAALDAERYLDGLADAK

For `Cn1cc(C(=O)O)[n+](C)[c]1[Au-]([Cl])([Cl])[c]1n(C)cc(C(=O)O)[n+]1C.[Cl-]` [5a], the “TrxR activity, % of control” value on TrxR from E. coli is given as 91.6 % of control. For the same molecule, the IC50 in experiment [1], in experiment [2], in experiment [3] and in experiment [4] was over 100 µM in each case. Also, in experiment [5], the “MIC, MRSA” value is over 100 µM. Besides, the “MIC, K. pneumoniae” value in experiment [6] is over 100 µM.
As for `CCOC(=O)c1cn(C)[c]([Au-]([Cl])([Cl])[c]2n(C)cc(C(=O)OCC)[n+]2C)[n+]1C.F[B-](F)(F)F` [5c], the “TrxR activity, % of control” value on TrxR from E. coli is recorded as 93.5 % of control. Besides, the half-inhibitory concentration (IC50) in experiment [1] was determined as 3.91 µM; in experiment [2], 2.33 µM; in experiment [3], 4.29 µM; in experiment [4], 0.89 µM. In addition, the “MIC, MRSA” value in experiment [5] came to 23.15 ± 0 µM. Moreover, in experiment [6], the “MIC, K. pneumoniae” value was over 100 µM.
`COC(=O)c1cn(C)[c]([Au-]([Cl])([Cl])[c]2n(C)cc(C(=O)OC)[n+]2C)[n+]1C.O=S(=O)([O-])C(F)(F)F` [5b]: on TrxR from E. coli, the “TrxR activity, % of control” value is 90.8 % of control. Moreover, the half-maximal inhibitory concentration (IC50) was 20 µM in experiment [1], 14.8 µM in experiment [2], 18.6 µM in experiment [3] and 3.35 µM in experiment [4]. Besides, in experiment [5], the “MIC, MRSA” value was over 100 µM. The “MIC, K. pneumoniae” value in experiment [6] was over 100 µM.
